# Laboratory results reported in PubChem BioAssay (NCI).
#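 The compound was tested at five concentrations on cells cultured in 96-well plates, with a 48-hour exposure period. Definition used: TGI = concentration required for complete inhibition of growth.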
# Experiments:
# Experiment in all cases: NCI tumour cell line growth inhibition, 48 h
# NCI-H226 lung = tested on: NCI-H226 lung
# KM20L2 colon = tested on: KM20L2 colon
# UACC-62 melanoma = tested on: UACC-62 melanoma
# RXF-631 renal = tested on: RXF-631 renal
# OVCAR-5 ovarian = tested on: OVCAR-5 ovarian
# M19-MEL melanoma = tested on: M19-MEL melanoma
# M14 melanoma = tested on: M14 melanoma
# LOX IMVI melanoma = tested on: LOX IMVI melanoma
# HT29 colon = tested on: HT29 colon
# DLD-1 colon = tested on: DLD-1 colon
# HOP-62 NSCLC = tested on: HOP-62 NSCLC
# HL-60(TB) leukemia = tested on: HL-60(TB) leukemia
# CAKI-1 renal = tested on: CAKI-1 renal
# SW-620 colon = tested on: SW-620 colon
# IGROV1 ovarian = tested on: IGROV1 ovarian
# SNB-78 CNS = tested on: SNB-78 CNS
# SNB-75 CNS = tested on: SNB-75 CNS
# RPMI-8226 leukemia = tested on: RPMI-8226 leukemia
# OVCAR-8 ovarian = tested on: OVCAR-8 ovarian
# A498 renal = tested on: A498 renal
# LXFL 529 NSCLC = tested on: LXFL 529 NSCLC
# SN12C renal = tested on: SN12C renal
# DMS 273 small cell lung = tested on: DMS 273 small cell lung
# NCI-H522 lung = tested on: NCI-H522 lung
# TK-10 renal = tested on: TK-10 renal
# XF 498 CNS = tested on: XF 498 CNS
# OVCAR-3 ovarian = tested on: OVCAR-3 ovarian
# U251 CNS = tested on: U251 CNS
# SR leukemia = tested on: SR leukemia
# MALME-3M melanoma = tested on: MALME-3M melanoma
# HCT-116 colon = tested on: HCT-116 colon
# MOLT-4 leukemia = tested on: MOLT-4 leukemia
# SF-268 CNS = tested on: SF-268 CNS
# SK-MEL-5 melanoma = tested on: SK-MEL-5 melanoma
# SF-295 CNS = tested on: SF-295 CNS
# EKVX NSCLC = tested on: EKVX NSCLC
# HOP-92 NSCLC = tested on: HOP-92 NSCLC
# RXF 393 renal = tested on: RXF 393 renal
# K-562 leukemia = tested on: K-562 leukemia
# COLO 205 colon = tested on: COLO 205 colon
# 786-0 renal = tested on: 786-0 renal
# SK-MEL-2 melanoma = tested on: SK-MEL-2 melanoma
# CCRF-CEM leukemia = tested on: CCRF-CEM leukemia
# NCI-H460 lung = tested on: NCI-H460 lung
# DMS 114 small cell lung = tested on: DMS 114 small cell lung
# NCI-H23 lung = tested on: NCI-H23 lung
# SF-539 CNS = tested on: SF-539 CNS
# HCT-15 colon = tested on: HCT-15 colon
# OVCAR-4 ovarian = tested on: OVCAR-4 ovarian
# UO-31 renal = tested on: UO-31 renal
# SK-OV-3 ovarian = tested on: SK-OV-3 ovarian
# KM12 colon = tested on: KM12 colon
# UACC-257 melanoma = tested on: UACC-257 melanoma
# A549 NSCLC = tested on: A549 NSCLC
# HOP-18 NSCLC = tested on: HOP-18 NSCLC
# SNB-19 CNS = tested on: SNB-19 CNS
smiles,measurement,setting,value
CC(C)=CCCC(C)[C@H]1CC(O)C2(C)C3=CCC4C(C)(C)[C@@H](O)CC[C@]4(C)C3=CC[C@]12C (stereo partly specified),TGI,NCI-H226 lung,15.1 µM
same,TGI,KM20L2 colon,93.6 µM
same,TGI,UACC-62 melanoma,15.1 µM
same,TGI,RXF-631 renal,34 µM
same,TGI,OVCAR-5 ovarian,> 100 µM
same,TGI,M19-MEL melanoma,13.8 µM
same,TGI,M14 melanoma,18.5 µM
same,TGI,LOX IMVI melanoma,1.07 µM
same,TGI,HT29 colon,14.6 µM
same,TGI,DLD-1 colon,27.1 µM
same,TGI,HOP-62 NSCLC,18.9 µM
same,TGI,HL-60(TB) leukemia,35 µM
same,TGI,CAKI-1 renal,24.4 µM
same,TGI,SW-620 colon,14.7 µM
same,TGI,IGROV1 ovarian,48.7 µM
same,TGI,SNB-78 CNS,32.4 µM
same,TGI,SNB-75 CNS,21.3 µM
same,TGI,RPMI-8226 leukemia,34.4 µM
same,TGI,OVCAR-8 ovarian,3.79 µM
same,TGI,A498 renal,16.3 µM
same,TGI,LXFL 529 NSCLC,5.09 µM
same,TGI,SN12C renal,12.3 µM
same,TGI,DMS 273 small cell lung,3.74 µM
same,TGI,NCI-H522 lung,16.2 µM
same,TGI,TK-10 renal,50.1 µM
same,TGI,XF 498 CNS,25.1 µM
same,TGI,OVCAR-3 ovarian,13.1 µM
same,TGI,U251 CNS,6.54 µM
same,TGI,SR leukemia,44.2 µM
same,TGI,MALME-3M melanoma,34.2 µM
same,TGI,HCT-116 colon,6.22 µM
same,TGI,MOLT-4 leukemia,42.4 µM
same,TGI,SF-268 CNS,28.3 µM
same,TGI,SK-MEL-5 melanoma,> 100 µM
same,TGI,SF-295 CNS,5.91 µM
same,TGI,EKVX NSCLC,> 100 µM
same,TGI,HOP-92 NSCLC,9.53 µM
same,TGI,RXF 393 renal,7.59 µM
same,TGI,K-562 leukemia,26.6 µM
same,TGI,COLO 205 colon,20.7 µM
same,TGI,786-0 renal,3.52 µM
same,TGI,SK-MEL-2 melanoma,79.5 µM
same,TGI,CCRF-CEM leukemia,25.8 µM
same,TGI,NCI-H460 lung,4.92 µM
same,TGI,DMS 114 small cell lung,33.5 µM
same,TGI,NCI-H23 lung,14.9 µM
same,TGI,SF-539 CNS,6.58 µM
same,TGI,HCT-15 colon,45.7 µM
same,TGI,OVCAR-4 ovarian,6.48 µM
same,TGI,UO-31 renal,41.6 µM
same,TGI,SK-OV-3 ovarian,24.8 µM
same,TGI,KM12 colon,> 100 µM
same,TGI,UACC-257 melanoma,> 100 µM
same,TGI,A549 NSCLC,10.6 µM
same,TGI,HOP-18 NSCLC,31.6 µM
same,TGI,SNB-19 CNS,30.2 µM
